Experimental data reported in US20170283804A1, “ANTISENSE COMPOUNDS AND USES THEREOF” (Ionis Pharmaceuticals, Inc., priority 2014, published 2017).
k = constrained ethyl (cEt); d = 2'-deoxy (DNA)

Tests used:
[1] = system: mouse Metastasis associated lung adenocarcinoma transcript 1 (Malat-1); experiment: In vivo dose response of Isis No. 556062 with and without FTY-720 pre-treatment (Malat-1 RNA, Example 3); conditions: mice, Liver
Method: (§1) Each treatment group consisted of 4 animals.
Malat-1 RNA levels were determined as described in Example 2. The results are presented in Table 18 as average Malat-1 RNA levels for each treatment group. Results for groups that received Isis No. 556062 alone are relative the group that received only PBS, and results for groups that received Isis No. 556062 and 1 mg/kg FTY-720 are relative to the group that received 1 mg/kg FTY-720 and PBS in place of Isis No. 556062.

[2] = Liver transaminase levels (ALT, AST) in serum, Example 3; format: in vivo; conditions: mice serum
Excerpt: as §1

[3] = 0.3 mg/kg 556062 subcutaneous, FTY-720 dose 0 mg/kg
[4] = 1 mg/kg 556062 subcutaneous, FTY-720 dose 0 mg/kg
[5] = 3 mg/kg 556062 subcutaneous, FTY-720 dose 0 mg/kg
[6] = 9 mg/kg 556062 subcutaneous, FTY-720 dose 0 mg/kg
[7] = 0.3 mg/kg 556062 subcutaneous, FTY-720 dose 1 mg/kg
[8] = 1 mg/kg 556062 subcutaneous, FTY-720 dose 1 mg/kg
[9] = 3 mg/kg 556062 subcutaneous, FTY-720 dose 1 mg/kg
[10] = 9 mg/kg 556062 subcutaneous, FTY-720 dose 1 mg/kg

## 556062 (antisense GGCTTAATGCAGCATT; sugars from the 5' end k3 d10 k3, all phosphorothioate, methylation of C not given here) [compound 556062]
[1]; [3]
  Average Malat-1 RNA: 80 % control
[1]; 0.3 mg/kg 556062 subcutaneous, FTY-720 dose 1 mg/kg i.p. daily
  Average Malat-1 RNA: 63 % control
[1]; [4]
  Average Malat-1 RNA: 49 % control
[1]; 1 mg/kg 556062 subcutaneous, FTY-720 dose 1 mg/kg i.p. daily
  Average Malat-1 RNA: 36 % control
[1]; [5]
  Average Malat-1 RNA: 18 % control
[1]; 3 mg/kg 556062 subcutaneous, FTY-720 dose 1 mg/kg i.p. daily
  Average Malat-1 RNA: 19 % control
[1]; [6]
  Average Malat-1 RNA: 11 % control
[1]; 9 mg/kg 556062 subcutaneous, FTY-720 dose 1 mg/kg i.p. daily
  Average Malat-1 RNA: 6 % control
[2]; [3]
  ALT: 24 U/L
  AST: 48 U/L
[2]; [7]
  ALT: 17 U/L
  AST: 48 U/L
[2]; [4]
  ALT: 56 U/L
  AST: 50 U/L
[2]; [8]
  ALT: 18 U/L
  AST: 45 U/L
[2]; [5]
  ALT: 24 U/L
  AST: 58 U/L
[2]; [9]
  ALT: 25 U/L
  AST: 40 U/L
[2]; [6]
  ALT: 31 U/L
  AST: 71 U/L
[2]; [10]
  ALT: 24 U/L
  AST: 46 U/L
